In ChEMBL document CHEMBL1221208, “ATP-competitive inhibitors of the mitotic kinesin KSP that function via an allosteric mechanism” (Nat Chem Biol, 2007):
Calls of active or inactive are those of the source. The rule behind the calls is not given here.

Tests used:
[1] = molecular target: Centromere-associated protein E (Homo sapiens) (UniProt Q02224); test: Inhibition of CENPE at 10 uM by puruvate kinsase-lactate dehydrogenase detection system
[2] = molecular target: T1, Kinesin-like protein KIFC1 (Homo sapiens) (UniProt Q9BW19); test: Inhibition of HSET at 10 uM by puruvate kinsase-lactate dehydrogenase detection system
T1 sequence (whole entry): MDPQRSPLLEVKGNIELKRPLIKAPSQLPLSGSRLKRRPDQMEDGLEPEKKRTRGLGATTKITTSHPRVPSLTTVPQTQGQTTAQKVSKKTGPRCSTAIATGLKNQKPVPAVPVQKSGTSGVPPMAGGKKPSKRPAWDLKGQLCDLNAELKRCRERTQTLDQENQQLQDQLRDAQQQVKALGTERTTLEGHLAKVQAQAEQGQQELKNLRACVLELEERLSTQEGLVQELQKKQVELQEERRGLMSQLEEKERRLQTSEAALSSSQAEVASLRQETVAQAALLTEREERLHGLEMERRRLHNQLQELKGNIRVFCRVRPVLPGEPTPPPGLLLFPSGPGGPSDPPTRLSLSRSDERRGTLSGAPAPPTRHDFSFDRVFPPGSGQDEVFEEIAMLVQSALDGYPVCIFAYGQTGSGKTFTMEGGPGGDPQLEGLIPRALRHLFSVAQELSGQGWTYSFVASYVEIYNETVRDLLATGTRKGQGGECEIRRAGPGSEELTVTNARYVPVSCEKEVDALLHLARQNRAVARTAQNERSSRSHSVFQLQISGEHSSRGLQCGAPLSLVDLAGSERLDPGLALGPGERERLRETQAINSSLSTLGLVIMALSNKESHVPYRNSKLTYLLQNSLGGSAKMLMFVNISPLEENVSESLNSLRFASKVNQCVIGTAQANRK

[3] = molecular target: T2, Chromosome-associated kinesin KIF4A (Homo sapiens) (UniProt O95239); test: Inhibition of Kif4 at 10 uM by puruvate kinsase-lactate dehydrogenase detection system
T2 sequence (whole entry): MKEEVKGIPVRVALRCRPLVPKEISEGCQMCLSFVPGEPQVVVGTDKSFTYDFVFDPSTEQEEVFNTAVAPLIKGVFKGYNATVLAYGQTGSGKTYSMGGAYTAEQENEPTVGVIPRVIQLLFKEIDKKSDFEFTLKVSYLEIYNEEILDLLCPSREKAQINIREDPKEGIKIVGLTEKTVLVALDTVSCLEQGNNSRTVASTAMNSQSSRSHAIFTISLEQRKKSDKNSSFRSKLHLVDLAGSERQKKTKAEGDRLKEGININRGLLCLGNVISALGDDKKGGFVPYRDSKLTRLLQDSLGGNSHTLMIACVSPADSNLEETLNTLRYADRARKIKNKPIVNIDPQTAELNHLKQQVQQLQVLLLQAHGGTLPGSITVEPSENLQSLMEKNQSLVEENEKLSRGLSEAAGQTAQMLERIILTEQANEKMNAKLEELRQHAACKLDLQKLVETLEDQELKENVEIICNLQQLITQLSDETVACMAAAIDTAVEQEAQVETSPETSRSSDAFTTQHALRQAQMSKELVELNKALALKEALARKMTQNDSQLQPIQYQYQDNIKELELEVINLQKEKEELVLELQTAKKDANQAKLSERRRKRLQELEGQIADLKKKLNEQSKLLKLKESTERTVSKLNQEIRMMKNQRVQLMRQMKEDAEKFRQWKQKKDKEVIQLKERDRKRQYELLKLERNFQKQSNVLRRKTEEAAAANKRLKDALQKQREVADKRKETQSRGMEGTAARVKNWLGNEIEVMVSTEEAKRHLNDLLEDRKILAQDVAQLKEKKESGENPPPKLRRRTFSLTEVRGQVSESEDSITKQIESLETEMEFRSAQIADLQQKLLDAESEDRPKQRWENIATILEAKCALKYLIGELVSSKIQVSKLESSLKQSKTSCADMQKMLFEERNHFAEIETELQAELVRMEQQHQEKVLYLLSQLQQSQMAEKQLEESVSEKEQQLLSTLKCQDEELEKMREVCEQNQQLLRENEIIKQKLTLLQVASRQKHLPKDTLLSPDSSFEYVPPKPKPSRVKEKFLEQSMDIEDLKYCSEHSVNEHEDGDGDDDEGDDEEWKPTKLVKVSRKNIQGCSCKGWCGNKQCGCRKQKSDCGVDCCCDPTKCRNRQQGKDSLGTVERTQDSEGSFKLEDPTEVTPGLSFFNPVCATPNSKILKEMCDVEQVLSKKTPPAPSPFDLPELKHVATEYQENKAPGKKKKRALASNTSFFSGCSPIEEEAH

[4] = test system: T3, Kinesin-like protein KIF11 (Homo sapiens), P52732 [D130V]; test: Competitive inhibition of human KSP D130V mutant with respect to ATP using varying ATP levels in presence of saturating levels of microtubule by Lineweaver-Burke plot
T3 sequence (whole entry): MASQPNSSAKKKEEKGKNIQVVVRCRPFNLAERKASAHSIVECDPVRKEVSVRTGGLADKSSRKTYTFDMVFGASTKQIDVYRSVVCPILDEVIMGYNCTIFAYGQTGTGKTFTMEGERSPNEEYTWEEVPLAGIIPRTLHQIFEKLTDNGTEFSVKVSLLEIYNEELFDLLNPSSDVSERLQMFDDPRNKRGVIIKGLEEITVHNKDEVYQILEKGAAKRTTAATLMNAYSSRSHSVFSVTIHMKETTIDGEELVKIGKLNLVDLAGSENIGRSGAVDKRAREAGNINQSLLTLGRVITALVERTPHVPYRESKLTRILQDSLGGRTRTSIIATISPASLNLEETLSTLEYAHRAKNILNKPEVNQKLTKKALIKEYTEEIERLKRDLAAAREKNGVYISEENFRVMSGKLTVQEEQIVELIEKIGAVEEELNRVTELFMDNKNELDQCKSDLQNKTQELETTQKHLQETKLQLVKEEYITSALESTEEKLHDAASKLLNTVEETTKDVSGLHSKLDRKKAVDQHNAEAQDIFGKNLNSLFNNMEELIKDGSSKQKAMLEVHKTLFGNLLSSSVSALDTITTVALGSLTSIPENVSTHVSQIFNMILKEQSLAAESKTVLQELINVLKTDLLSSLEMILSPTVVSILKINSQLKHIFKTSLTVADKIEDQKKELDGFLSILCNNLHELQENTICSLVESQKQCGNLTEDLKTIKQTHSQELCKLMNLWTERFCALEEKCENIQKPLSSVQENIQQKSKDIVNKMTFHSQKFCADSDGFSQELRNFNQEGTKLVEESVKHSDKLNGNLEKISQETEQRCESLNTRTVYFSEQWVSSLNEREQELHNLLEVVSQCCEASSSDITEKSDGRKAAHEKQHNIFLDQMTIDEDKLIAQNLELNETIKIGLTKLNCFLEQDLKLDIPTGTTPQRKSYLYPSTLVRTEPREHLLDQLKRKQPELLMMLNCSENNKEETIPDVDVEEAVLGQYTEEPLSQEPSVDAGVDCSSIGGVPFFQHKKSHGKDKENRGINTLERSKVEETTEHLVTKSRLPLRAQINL

Centromere-associated protein E (Homo sapiens), sequence (Q02224 whole entry): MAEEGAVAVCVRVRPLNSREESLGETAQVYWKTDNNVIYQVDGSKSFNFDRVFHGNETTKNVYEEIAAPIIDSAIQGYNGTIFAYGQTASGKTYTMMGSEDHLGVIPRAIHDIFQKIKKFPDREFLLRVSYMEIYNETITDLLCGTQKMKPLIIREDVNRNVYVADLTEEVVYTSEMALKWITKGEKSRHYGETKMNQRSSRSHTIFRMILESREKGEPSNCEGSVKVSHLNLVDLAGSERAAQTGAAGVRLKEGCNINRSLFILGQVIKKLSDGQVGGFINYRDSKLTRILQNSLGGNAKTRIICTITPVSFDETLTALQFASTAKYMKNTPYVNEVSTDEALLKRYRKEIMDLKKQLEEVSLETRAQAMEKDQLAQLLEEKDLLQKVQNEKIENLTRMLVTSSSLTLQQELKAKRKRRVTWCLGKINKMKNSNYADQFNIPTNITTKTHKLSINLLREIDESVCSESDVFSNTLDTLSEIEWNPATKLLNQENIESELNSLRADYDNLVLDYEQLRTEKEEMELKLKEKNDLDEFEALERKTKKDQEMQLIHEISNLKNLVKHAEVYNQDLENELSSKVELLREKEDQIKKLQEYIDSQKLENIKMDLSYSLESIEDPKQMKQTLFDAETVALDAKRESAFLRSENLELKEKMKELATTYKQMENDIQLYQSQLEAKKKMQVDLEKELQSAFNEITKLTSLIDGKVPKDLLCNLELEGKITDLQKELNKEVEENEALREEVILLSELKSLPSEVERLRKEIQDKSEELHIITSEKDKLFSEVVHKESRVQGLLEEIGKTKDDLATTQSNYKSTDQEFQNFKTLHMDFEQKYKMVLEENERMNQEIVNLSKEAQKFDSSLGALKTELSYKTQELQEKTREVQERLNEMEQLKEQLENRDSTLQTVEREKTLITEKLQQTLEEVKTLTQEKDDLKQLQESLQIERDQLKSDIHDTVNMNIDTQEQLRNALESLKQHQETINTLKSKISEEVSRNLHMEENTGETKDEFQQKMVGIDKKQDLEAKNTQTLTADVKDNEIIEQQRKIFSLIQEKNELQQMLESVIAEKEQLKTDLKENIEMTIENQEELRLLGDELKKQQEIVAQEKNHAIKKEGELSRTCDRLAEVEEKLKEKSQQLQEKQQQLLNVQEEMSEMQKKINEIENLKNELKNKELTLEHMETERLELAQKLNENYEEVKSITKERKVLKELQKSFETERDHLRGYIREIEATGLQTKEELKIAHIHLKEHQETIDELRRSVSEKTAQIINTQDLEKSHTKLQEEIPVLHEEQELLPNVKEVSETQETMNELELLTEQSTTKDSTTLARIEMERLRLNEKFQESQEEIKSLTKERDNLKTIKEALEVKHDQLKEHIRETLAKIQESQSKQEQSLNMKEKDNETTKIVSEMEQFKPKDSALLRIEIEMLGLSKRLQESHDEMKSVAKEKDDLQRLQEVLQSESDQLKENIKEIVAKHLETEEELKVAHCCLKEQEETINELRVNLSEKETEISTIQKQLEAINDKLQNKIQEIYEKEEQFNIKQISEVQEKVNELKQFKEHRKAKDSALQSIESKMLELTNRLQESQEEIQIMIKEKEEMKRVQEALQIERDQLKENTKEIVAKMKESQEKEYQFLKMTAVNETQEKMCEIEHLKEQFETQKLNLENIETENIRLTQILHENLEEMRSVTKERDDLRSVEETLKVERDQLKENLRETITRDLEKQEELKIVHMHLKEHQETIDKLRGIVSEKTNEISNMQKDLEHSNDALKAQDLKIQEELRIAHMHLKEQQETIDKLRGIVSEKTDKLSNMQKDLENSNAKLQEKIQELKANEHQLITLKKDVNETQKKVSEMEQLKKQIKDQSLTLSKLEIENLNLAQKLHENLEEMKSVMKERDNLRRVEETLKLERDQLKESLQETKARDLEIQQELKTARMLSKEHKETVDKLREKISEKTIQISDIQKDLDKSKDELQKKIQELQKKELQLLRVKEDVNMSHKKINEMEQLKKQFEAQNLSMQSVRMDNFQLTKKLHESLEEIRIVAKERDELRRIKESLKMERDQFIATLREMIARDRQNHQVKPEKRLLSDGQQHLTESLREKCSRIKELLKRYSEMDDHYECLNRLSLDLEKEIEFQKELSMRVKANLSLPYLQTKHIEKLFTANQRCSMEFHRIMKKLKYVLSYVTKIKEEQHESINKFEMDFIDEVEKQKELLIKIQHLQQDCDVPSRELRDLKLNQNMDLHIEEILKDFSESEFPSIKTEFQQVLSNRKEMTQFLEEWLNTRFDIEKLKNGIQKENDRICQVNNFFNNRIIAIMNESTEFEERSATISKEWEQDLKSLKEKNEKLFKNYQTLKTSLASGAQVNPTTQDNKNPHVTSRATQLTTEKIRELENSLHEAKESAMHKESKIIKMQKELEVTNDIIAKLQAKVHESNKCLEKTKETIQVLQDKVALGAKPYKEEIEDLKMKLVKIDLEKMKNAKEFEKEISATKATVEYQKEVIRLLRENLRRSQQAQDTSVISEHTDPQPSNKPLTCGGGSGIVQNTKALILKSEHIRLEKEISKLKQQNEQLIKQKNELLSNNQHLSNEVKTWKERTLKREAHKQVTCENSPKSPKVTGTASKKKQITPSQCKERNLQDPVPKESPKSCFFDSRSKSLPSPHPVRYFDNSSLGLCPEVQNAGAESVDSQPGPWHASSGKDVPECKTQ

## Cc1ccc(C(=O)N(CCCN)[C@@H](c2nc3cc(Cl)ccc3c(=O)n2Cc2ccccc2)C(C)C)cc1
[1]
  inhibition: 7%
[2]
  inhibition: 4.2%
[3]
  inhibition: 4.3%

## NC(=O)Nc1ccc(-c2ccc(C(F)(F)F)cc2)cc1F
[1]
  inhibition: 11%
[2]
  inhibition: 2.6%
[3]
  inhibition: 8.2%
[4]
  inhibition: Active

## O=C1CCc2cc(-c3ccc(C(F)(F)F)cc3)ccc2N1
[1]
  inhibition: 9%
[2]
  inhibition: 4.1%
[3]
  inhibition: 6.5%
[4]
  inhibition: Active
